Each compound was assayed against T1, glucosylceramide synthase (Homo sapiens, UniProt Q16739) (assay: Glucosylceramide synthase (GCS) enzyme assay, microsome fraction, C8 glucosylceramide quantified by Rapidfire MS/MS). Conditions: test compound 10 μM; 1.7 μM UDP-glucose, 3 μM C8 ceramide; room temperature 60 min.
T1 construct: made in house; host or cells: Expi293F cells (transient expression, pcDNA3.3-TOPO vector); microsome fraction used as enzyme source
T1 sequence (Q16739 1-394): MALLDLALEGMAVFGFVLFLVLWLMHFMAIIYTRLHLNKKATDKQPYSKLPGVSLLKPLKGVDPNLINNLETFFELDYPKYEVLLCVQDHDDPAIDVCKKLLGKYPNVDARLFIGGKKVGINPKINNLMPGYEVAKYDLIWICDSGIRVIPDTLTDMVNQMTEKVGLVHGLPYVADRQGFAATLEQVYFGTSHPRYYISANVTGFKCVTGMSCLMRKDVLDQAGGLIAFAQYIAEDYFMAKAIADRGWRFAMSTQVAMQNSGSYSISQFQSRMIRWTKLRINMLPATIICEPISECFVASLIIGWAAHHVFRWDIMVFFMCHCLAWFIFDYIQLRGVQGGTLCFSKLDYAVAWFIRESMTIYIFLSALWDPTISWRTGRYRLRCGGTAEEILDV
Assay type: biochemical
Outline: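 Test compound, 10 μM final, was run against human GCS from transfected Expi293F microsome fractions, using substrate solution of 6 μM C8 ceramide (in DOPC liposomes) plus 3.4 μM UDP-glucose, pH 7.5 Tris buffer, 60 min, room temperature. Product C8 glucosylceramide measured by Rapidfire MS/MS against an internal standard, % inhibition referenced to no-enzyme and DMSO wells.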

Row | GCS enzyme inhibitory rate at 10 μM (%) (% of control) | SMILES
1 | 98 | O=C1c2ccnc(-c3ccc(F)cc3OCC(F)(F)F)c2CN1c1ccc(C2(O)CCOC2)cc1 (single isomer, unassigned) [Example 263, (R or S)-4-[4-fluoro-2-(2,2,2-trifluoroethoxy)phenyl]-2-[4-(3-hydroxyoxolan-3-yl)phenyl]-2,3-dihydro-1H-pyrrolo[3,4-c]pyridin-1-one]
2 | 99 | Cc1cncc(OCC(F)(F)F)c1-c1nccc2c1CN(c1ccc(OC(F)F)cc1)C2=O [Example 198, 2-[4-(difluoromethoxy)phenyl]-4-[3-methyl-5-(2,2,2-trifluoroethoxy)pyridin-4-yl]-2,3-dihydro-1H-pyrrolo[3,4-c]pyridin-1-one]

Same assay, conditions: test compound 10 μM; 1.7 μM UDP-glucose, 3 μM C8 ceramide; room temperature 60 min; read-out: GCS enzyme inhibitory rate at 10 μM (%) (% of control)

Row | inhibition at 10 µM [%] | SMILES
3 | 100 | CC(C)n1cc2c(c(-c3ccccc3OCC(F)(F)F)c1=O)CN(c1ccc(C(C)(C)O)cc1)C2=O [Example 376, 2-[4-(2-hydroxypropan-2-yl)phenyl]-5-(propan-2-yl)-7-[2-(2,2,2-trifluoroethoxy)phenyl]-1H-pyrrolo[3,4-c]pyridine-3,6(2H,5H)-dione]
4 | 99 | O=C1c2ccnc(-c3ccncc3OCC(F)(F)F)c2CN1c1ccc(C2(O)CC(F)(F)C2)c(F)c1 [Example 287, 2-[4-(3,3-difluoro-1-hydroxycyclobutyl)-3-fluorophenyl]-4-[3-(2,2,2-trifluoroethoxy)pyridin-4-yl]-2,3-dihydro-1H-pyrrolo[3,4-c] pyridin-1-one]
5 | 95 | Fc1ccc(N2Cc3ccnc(-c4ccc(F)cc4OCC(F)(F)F)c3C2)nc1 [Example 169, 2-(5-fluoropyridin-2-yl)-4-[4-fluoro-2-(2,2,2-trifIuoroethoxy)phenyl]-2,3-dihydro-1H-pyrrolo[3,4-c]pyridine]
6 | 91 | O=C1c2ccnc(-c3ccccc3OC(F)F)c2CN1c1ccc(OC(F)F)nc1 [Example 74, 4-[2-(difluoromethoxy)phenyl]-2-[6-(difluoromethoxy)pyridin-3-yl]-2,3-dihydro-1H-pyrrolo[3,4-c]pyridin-1-one]
7 | 99 | CC(C)(O)Cc1ccc(N2Cc3c(ccnc3-c3ccc(F)cc3OCC(F)(F)F)C2=O)cc1 [Example 305, 4-[4-fluoro-2-(2,2,2-trifluoroethoxy)phenyl]-2-[4-(2-hydroxy-2-methylpropyl)phenyl]-2,3-dihydro-1H-pyrrolo[3,4-c]pyridin-1-one]
8 | 100 | COCc1cc2c(c(-c3ccccc3OCC(F)(F)F)n1)CN(c1ccc(C(C)(C)O)cc1)C2=O [Example 330, 2-[4-(2-hydroxypropan-2-yl)phenyl]-6-(methoxymethyl)-4-[2-(2,2,2-trifluoroethoxy)phenyl]-2,3-dihydro-1H-pyrrolo[3,4-c]pyridin-1-one]
9 | 99 | CCS(=O)(=O)c1ccc(N2Cc3c(ccnc3-c3ccccc3OCC(F)(F)F)C2=O)cc1 [Example 160, 2-[4-(ethanesulfonyl)phenyl]-4-[2-(2,2,2-trifluoroethoxy)phenyl]-2,3-dihydro-1H-pyrrolo[3,4-c]pyridin-1-one]
10 | 100 | CC(O)(c1ccc(N2Cc3c(ccnc3-c3ccccc3OCC(F)(F)F)C2=O)cc1)C(F)F (single isomer, unassigned) [Example 315, (R or S)-2-[4-(1,1-difluoro-2-hydroxypropan-2-yl)phenyl]-4-[2-(2,2,2-trifluoroethoxy)phenyl]-2,3-dihydro-1H-pyrrolo[3,4-c]pyridin-1-one]
11 | 95 | O=C1c2cc(C3CCCCC3)nc(-c3ccc(F)cc3OCC(F)(F)F)c2CN1c1ccc(F)cc1 [Example 381, 6-cyclohexyl-2-(4-fluorophenyl)-4-[4-fluoro-2-(2,2,2-trifluoroethoxy)phenyl]-2,3-dihydro-1H-pyrrolo [3,4-c]pyridin-1-one]
12 | 95 | O=C1c2ccnc(-c3ccc(F)cc3OCC(F)(F)F)c2CN1c1cnn(CC2(F)COC2)c1 [Example 202, 2-{1-[(3-fluorooxetan-3-yl)methyl]-1H-pyrazol-4-yl}-4-[4-fluoro-2-(2,2,2-trifluoroethoxy)phenyl]-2,3-dihydro-1H-pyrrolo[3,4-c]pyridin-1-one]
13 | 94 | CC(C)(O)c1ccc(N2Cc3c(ccnc3-c3ccncc3OCC(F)(F)F)C2=O)nc1 [Example 275, 2-[5-(2-hydroxypropan-2-yl)pyridin-2-yl]-4-[3-(2,2,2-trifluoroethoxy)pyridin-4-yl]-2,3-dihydro-1H-pyrrolo [3,4-c]pyridin-1-one]
14 | 99 | O=C1c2ccnc(-c3ccccc3OCC(F)(F)F)c2CN1c1ccc(C(O)C2CC2)nc1 (racemic) [Example 317, rac-2-{6-[cyclopropyl(hydroxy)methyl]pyridin-3-yl}-4-[2-(2,2,2-trifluoroethoxy)phenyl]-2,3-dihydro-1H-pyrrolo[3,4-c]pyridin-1-one]
15 | 72 | COc1cc(F)ccc1-c1cncc2c1CN(c1ccc(F)cc1)C2=O [Example 80, 7-(4-fluoro-2-methoxyphenyl)-2-(4-fluorophenyl)-1,2-dihydro-3H-pyrrolo [3,4-c]pyridin-3-one]
16 | 52 | Cn1nc(N2Cc3c(ccnc3-c3ccc(F)cc3OCC(F)(F)F)C2=O)cc1C#N [Example 318, 3-{4-[4-fluoro-2-(2,2,2-trifluoroethoxy)phenyl]-1-oxo-1,3-dihydro-2H-pyrrolo [3,4-c]pyridin-2-yl}-1-methyl-1H-pyrazole-5-carbonitrile]
17 | 85 | O=C1c2ccnc(-c3ccccc3OCC(F)(F)F)c2CN1c1ccc(C2(O)CNC2)cc1 [Example 259, 2-[4-(3-hydroxyazetidin-3-yl)phenyl]-4-[2-(2,2,2-trifluoroethoxy)phenyl]-2,3-dihydro-1H-pyrrolo[3,4-c]pyridin-1-one]
18 | 96 | O=C1c2ccnc(-c3ccncc3OCC(F)(F)F)c2CN1c1ccc(OC(F)F)nc1 [Example 105, 2-[6-(difluoromethoxy)pyridin-3-yl]-4-[3-(2,2,2-trifluoroethoxy)pyridin-4-yl]-2,3-dihydro-1H-pyrrolo[3,4-c]pyridin-1-one]
19 | 100 | O=C1c2ccnc(-c3ccccc3OCC(F)(F)F)c2CN1c1ccc(C2(O)CCC2)cc1 [Example 191, 2-[4-(1-hydroxycyclobutyl)phenyl]-4-[2-(2,2,2-trifluoroethoxy)phenyl]-2,3-dihydro-1H-pyrrolo[3,4-c]pyridin-1-one]
20 | 77 | CC(C)(O)c1ccc(N2Cc3c(cc(C4CCOC4)nc3-c3ccccc3OCC(F)F)C2=O)cc1 (racemic) [Example 390, rac-4-[2-(2,2-difluoroethoxy)phenyl]-2-[4-(2-hydroxypropan-2-yl)phenyl]-6-(oxolan-3-yl)-2,3-dihydro-1H-pyrrolo[3,4-c]pyridin-1-one]
21 | 91 | O=C1c2ccnc(-c3ccc(F)cc3OCC(F)(F)F)c2CN1c1ccc(C2(O)COC2)cn1 [Example 199, 4-[4-fluoro-2-(2,2,2-trifluoroethoxy)phenyl]-2-[5-(3-hydroxyoxetan-3-yl)pyridin-2-yl]-2,3-dihydro-1H-pyrrolo[3,4-c]pyridin-1-one]
22 | 99 | CC(C)(O)COc1ccc(N2Cc3c(ccnc3-c3ccccc3OCC(F)F)C2=O)cc1 [Example 366, 4-[2-(2,2-difluoroethoxy)phenyl]-2-[4-(2-hydroxy-2-methylpropoxy)phenyl]-2,3-dihydro-1H-pyrrolo [3,4-c]pyridin-1-one]
23 | 97 | O=C1c2ccnc(-c3ccc(F)cc3OCC(F)(F)F)c2CN1c1ccc(C2(O)CCOC2)cc1 (single isomer, unassigned) [Example 243, (R or S)-4-[4-fluoro-2-(2,2,2-trifluoroethoxy)phenyl]-2-[4-(3-hydroxyoxolan-3-yl)phenyl]-2,3-dihydro-1H-pyrrolo[3,4-c]pyridin-1-one]
24 | 93 | CS(=O)(=O)c1ccc(N2Cc3cnn(-c4ccccc4OCC(F)(F)F)c3C2)nc1 [Example 215, 5-[5-(methanesulfonyl)pyridin-2-yl]-1-[2-(2,2,2-trifluoroethoxy)phenyl]-1,4,5,6-tetrahydropyrrolo[3,4-c]pyrazole]
25 | 96 | O=C1c2ccnc(-c3ccc(F)cc3OCC(F)(F)F)c2CN1c1cnc(OC(F)F)cn1 [Example 100, 2-[5-(difluoromethoxy)pyrazin-2-yl]-4-[4-fluoro-2-(2,2,2-trifiuoroethoxy)phenyl]-2,3-dihydro-1H-pyrrolo[3,4-c]pyridin-1-one]
26 | 98 | COC1(c2ccc(N3Cc4c(ccnc4-c4ccc(F)cc4OCC(F)(F)F)C3=O)cc2)COC1 [Example 178, 4-[4-fluoro-2-(2,2,2-trifluoroethoxy)phenyl]-2-[4-(3-methoxyoxetan-3-yl)phenyl]-2,3-dihydro-1H-pyrrolo[3,4-c]pyridin-1-one]
27 | 98 | O=C1c2ccnc(-c3ccc(F)cc3OCC(F)(F)F)c2CN1c1ccc(OCC2(F)COC2)cc1 [Example 194, 2-{4-[(3-fluorooxetan-3-yl)methoxy]phenyl}-4-[4-fluoro-2-(2,2,2-trifluoroethoxy)phenyl]-2,3-dihydro-1H-pyrrolo[3,4-c]pyridin-1-one]

Source: patent US12528802B2, “Heterocyclic compound” (Takeda Pharmaceutical Company Limited, priority 2019, dated 2026)
